Laboratory results published in paper PMC3597730, “Novel Phenolic Inhibitors of Small/Intermediate-Conductance Ca^2+-Activated K^+ Channels, KCa3.1 and KCa2.3” (PLoS ONE, 2013).
Entries after “also recorded” stand apart in the source; their conditions may differ. Where two headings read alike, the source gives them in different places. Blank lines part the entries; values can stand above or below the molecule they belong to.

How the values were obtained:
[1] = test system: porcine coronary artery rings; test: Isometric myography: U46619-induced contractions; details: 13b 0.5 µM
Experimental: (§1) Myography on porcine coronary artery rings was performed as described in detail previously, [30]. In brief, left anterior descending arteries or posterior descending arteries were cut into rings (3 mm long) and rings were mounted onto a isometric force transducer (Pioden UF1, Graham Bell House, Canterbury, UK). The organ bath contained a 5 ml Krebs buffer maintained at 37°C and gassed with 95% O2/5% CO2. The composition of the Krebs buffer was as follows (in mM): NaCl 120, NaHCO3 24.5, CaCl2 2.4, KCl 4.7, MgSO4 1.2, KH2PO4 1 and glucose 5.6, pH 7.4. Each ring was passively stretched to an initial tension of 1 gr (10 mN). Changes in force were monitored and recorded on a computer using a Mac Lab System/8e program (AD Instruments Inc, Milford, Ma, USA), and digitalized at a sample rate of 0.5 sec.
(§2) To measure specifically endothelium-derived hyperpolarization-mediated vasorelaxation (EDH), the NO-synthase blocker, Nω-nitro-L-arginine (L-NNA, 300 µM), and the cyclooxygenase blocker, indomethacin (10 µM), were added to the buffer. Preparations were washed three times and were allowed to equilibrate for 40 min. Within this period, the incubation medium was renewed every 20 min. […] Ten min later, bradykinin (1 µM) was added for another 10 min, followed by washout (over at least 10 min). This protocol was repeated (2nd stimulation). Thereafter, we performed a 3rd round of pre-contraction and vasorelaxation, but using the vasospasmic thromboxane analogue U46619 (0.2 µM) as vasocontracting agent. At the end of the experiments, rings were allowed to contract maximally in a KCl (60 mM) buffer for 10 min followed by addition of the compounds. Finally, sodium nitroprusside (10 µM) was added to achieve maximal endothelium-independent vasorelaxation.
(§3) DMSO as the vehicle had no vasoactive effect per se on the tissue. Other compounds were dissolved in Milli-Q water.
(§4) For data analysis, we determined absolute increases in force to 5-HT, U46619, or 60 mM KCl. Bradykinin-induced relaxations were determined as % change of pre-contraction to either vasocontracting compound and relative to the fully relaxed state (in the absence of the vasocontracting agent).

[2] = test system: inward-rectifying K+ current (Kir) in U251 glioblastoma cells; test: Whole-cell patch-clamp of native inward-rectifying K+ current in U251 cells; type: cell-based, human; details: 1 µM, at −100 mV, n = 5
[3] = test system: porcine coronary artery rings; test: Isometric myography: bradykinin-induced (EDH) relaxation; details: 13b 0.5 µM
Experimental: as §1, §2, §3, §4

[4] = test system: porcine coronary artery rings; test: Isometric myography: endothelium-independent relaxation to sodium nitroprusside; details: pre-contracted by 60 mM K+; 13b 0.5 µM, SKA-31 1 µM, alone or combined
Experimental: as §1
as §2, with “vasorelaxation. […]” for “vasorelaxation.”
as §4

[5] = biological target: T1, KCa3.1 channels in 3T3 fibroblasts (Mus musculus, UniProt O89109); test: Whole-cell patch-clamp of KCa3.1 currents in 3T3 fibroblasts; type: cell-based; details: for remaining activity at 1 µM: compound 1 µM, read-out: % of control at 1 µM; for KCa3.1 blocking effect (in words): concentrations up to 50 µM as in Table 1
T1 construct: KCa3.1 channels in 3T3 fibroblasts; endogenous in cells; host or cells: 3T3-L1 mouse embryonic fibroblasts

[6] = test system: porcine coronary artery rings; test: Isometric myography: 5-HT-induced contractions; details: 13b 0.5 µM
Experimental: as §1, §2, §3, §4

[7] = test system: porcine coronary artery rings; test: Isometric myography: contractions to 60 mM K+; details: 13b 0.5 µM, SKA-31 1 µM, alone or combined
Experimental: as §1
as §2, with “vasorelaxation. […]” for “vasorelaxation.”
as §4

hKv1.2 = biological target: T2, hKv1.2 (Homo sapiens, UniProt P16389); test: Whole-cell patch-clamp of cloned hKv1.2; type: cell-based
T2 construct: expressed in transfected cells; host or cells: B82 murine fibroblasts (Methods)

hKCa2.3 [8] = biological target: T3, hKCa2.3 (Homo sapiens, UniProt Q9UGI6); test: Whole-cell patch-clamp of hKCa2.3 in COS7 cells; type: cell-based
T3 construct: expressed in transfected cells; host or cells: COS7

hKCa2.3 [9] = biological target: T3, hKCa2.3; test: Inside-out single-channel experiments on hKCa2.3; type: biochemical
3T3 fibroblasts = test: Cell proliferation assay (Janus B Green staining); type: cell-based, mouse
Experimental: Cell proliferation was spectrophotometrically assessed as described previously with some modifications. Briefly, 3T3 fibroblasts (1500 cells/well) were seeded in 96-well plates (TPP. Switzerland), cultured in DMEM containing 10% FCS (Lonza, Switzerland) with 13b or vehicle (DMSO), and formalin-fixed at days 0,1,2 and 3. To exclude the possibility that DMSO as vehicle affected the cell viability per se, final DMSO concentrations were the same for each concentration of 13b and the controls. Fixed cells were stained for 5 minutes with 50 ul/well of 0.3% Janus B Green dye (Acros Organics, Belgium) at room temperature with constant stirring followed by a de-staining step with water. Dye was eluted with 200 ul/well of 0.5 M HCl of hydrochloric acid and top-read measurements of absorbance were performed in a microplate reader (Sinergy HT, Biotek, USA) at 595 nm.

KCa1.1 = test system: T4, KCa1.1; test: Whole-cell patch-clamp of KCa1.1 in U251 glioblastoma cells; type: cell-based, human
T4 construct: KCa1.1 in human U251 glioblastoma cells; endogenous in cells; host or cells: U251 glioblastoma cells

hKv1.3 = test system: T5, hKv1.3; test: Whole-cell patch-clamp of cloned hKv1.3; type: cell-based, human
T5 construct: expressed in transfected cells

hERG = test system: T6, hERG; test: Whole-cell patch-clamp of hERG tail currents in HEK293 cells; type: cell-based, human; details: human, HEK293 cells expressing hERG, pH 7.4, hERG
T6 construct: expressed in transfected cells; gift of Craig January, University of Wisconsin

hERG channels = test system: T7, hERG channels; test: as above; type: cell-based, human; details: 13b 1 µM; caffeic acid, flufenamic acid 10 µM (Table S1)
T7 construct: expressed in transfected cells; gift of Craig January, University of Wisconsin

[10] = biological target: T8, cloned human KCa3.1 channel (Homo sapiens, UniProt O15554); test: Inside-out patch recordings from hKCa3.1-overexpressing HEK293 cells; type: biochemical; details: inside-out patches
T8 construct: expressed in transfected cells; gift of Khaled Houamed, University of Chicago

[11] = test system: mixed KCa3.1 and KCa2.3 currents in PCAEC; test: Whole-cell patch-clamp of KCa currents in porcine coronary artery endothelial cells; type: cell-based
[12] = test system: calcium-activated chloride channels; details: previously shown; no reference given; read-out: reported EC50, calcium-activated chloride channels; cited from earlier work
[13] = test system: non-selective cation channels; details: previously shown; no reference given; read-out: reported EC50, non-selective cation channels; cited from earlier work
[14] = 1 µM bradykinin, SKA-31 1 µM, alone or combined
[15] = KCa3.1 whole-cell current, 3T3 fibroblasts, 1 µM free Ca2+ in pipette, mean ± SEM, n ≥3
[16] = whole-cell, 3T3 fibroblasts, read-out: EC50 of KCa3.1 inhibition
[17] = 1 µM 5-HT, SKA-31 1 µM, alone or combined

T3 sequence (Q9UGI6 whole entry): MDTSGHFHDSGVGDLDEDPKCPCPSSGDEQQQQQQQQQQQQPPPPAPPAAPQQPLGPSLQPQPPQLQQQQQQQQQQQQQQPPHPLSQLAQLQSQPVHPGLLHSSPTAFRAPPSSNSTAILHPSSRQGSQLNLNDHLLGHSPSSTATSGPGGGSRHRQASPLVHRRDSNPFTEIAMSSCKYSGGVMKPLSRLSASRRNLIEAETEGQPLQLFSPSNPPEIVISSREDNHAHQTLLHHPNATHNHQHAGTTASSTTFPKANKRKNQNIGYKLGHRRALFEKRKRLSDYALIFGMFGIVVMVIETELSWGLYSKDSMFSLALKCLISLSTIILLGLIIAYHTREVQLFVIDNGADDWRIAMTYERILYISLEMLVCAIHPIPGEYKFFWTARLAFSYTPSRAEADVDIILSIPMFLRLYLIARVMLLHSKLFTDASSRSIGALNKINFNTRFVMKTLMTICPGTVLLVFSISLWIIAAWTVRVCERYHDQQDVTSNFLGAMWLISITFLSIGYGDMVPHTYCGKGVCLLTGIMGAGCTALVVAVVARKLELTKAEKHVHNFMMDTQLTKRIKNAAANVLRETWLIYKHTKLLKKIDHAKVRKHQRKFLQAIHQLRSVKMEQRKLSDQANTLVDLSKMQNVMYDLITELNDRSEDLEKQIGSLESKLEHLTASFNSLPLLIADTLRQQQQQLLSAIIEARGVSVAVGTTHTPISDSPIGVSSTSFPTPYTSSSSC
T2 sequence (P16389 whole entry): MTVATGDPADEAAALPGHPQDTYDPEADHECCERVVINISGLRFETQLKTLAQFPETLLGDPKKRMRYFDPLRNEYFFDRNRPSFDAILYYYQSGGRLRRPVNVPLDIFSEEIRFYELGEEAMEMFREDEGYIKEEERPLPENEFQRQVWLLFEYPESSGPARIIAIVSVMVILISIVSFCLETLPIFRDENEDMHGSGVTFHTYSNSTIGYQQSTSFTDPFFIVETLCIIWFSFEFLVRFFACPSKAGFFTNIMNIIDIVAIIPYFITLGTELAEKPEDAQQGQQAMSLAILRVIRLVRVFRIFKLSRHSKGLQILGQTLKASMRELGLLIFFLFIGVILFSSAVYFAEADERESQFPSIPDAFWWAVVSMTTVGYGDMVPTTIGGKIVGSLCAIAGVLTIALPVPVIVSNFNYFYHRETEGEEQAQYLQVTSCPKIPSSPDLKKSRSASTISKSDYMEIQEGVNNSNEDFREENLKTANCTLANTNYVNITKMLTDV

- remaining activity at 1 µM [5, 15]: 4 ± 1%
- EC50 ([5]; KCa3.1 whole-cell, 1 µM SKA-31, read-out: EC50 to suppress the SKA-31-induced current): 161 ± 121 nM
- Hill coefficient ([5]; KCa3.1 whole-cell, 3T3 fibroblasts): ~1
- KCa3.1 blocking effect (in words) ([5]; whole-cell, 3T3 fibroblasts): Complete inhibition
- EC50 [5, 16]: 19 nM
- inhibition at 0.1 µM (hKv1.2; 100 nM): 19%
- remaining activity at 1 µM (hKv1.2; hKv1.2, compound 1 µM, read-out: % of control at 1 µM): 11 ± 2%
- EC50 (hKv1.2; read-out: EC50 of hKv1.2 block): 550 ± 10 nM
- remaining activity at 1 µM (hKCa2.3 [8]; COS-7, hKCa2.3, compound 1 µM, mean ± SEM, n ≥ 3, read-out: % of control at 1 µM): 4 ± 2%
- Hill coefficient (hKCa2.3 [8]; hKCa2.3 whole-cell): ~1
- EC50 (hKCa2.3 [8]; whole-cell, COS7 cells, 1 µM free Ca2+, read-out: EC50 of hKCa2.3 inhibition): 0.36 nM
- EC50 (hKCa2.3 [9]; inside-out single channel experiments, read-out: EC50 of hKCa2.3 inhibition): 0.241 ± 0.129 nM
- Hill coefficient (hKCa2.3 [9]; inside-out, hKCa2.3): ~1
- EC50 ([10]; HEK293, 0.5 µM free Ca2+, read-out: EC50 of hKCa3.1 inhibition): 14 nM
- Hill coefficient ([10]; hKCa3.1): ~1
SMILES: O=C(OCc1cc(COC(=O)c2ccc(O)c(F)c2)cc(COC(=O)c2ccc(O)c(F)c2)c1)c1ccc(O)c(F)c1 [Compound 13b, [3,5-bis[(3-fluoro-4-hydroxy-benzoyl)oxymethyl]phenyl]methyl 3-fluoro-4-hydroxy-benzoate]
- Δg ([1]; 0.2 µM U46619, SKA-31 1 µM, alone or combined): 2.8 ± 0.2 g
- change of U46619 contraction vs. vehicle ([1]; alone or with SKA-31 1 µM): +29%
- Kir current, % of control [2]: 98±2%
- % relaxation, 5-HT-precontraction [3, 14]: 24±2%
- % relaxation, U46619-precontraction [3, 14]: −1±1%
- continued contraction of U46619-precontracted rings with bradykinin [3]: +1 % contraction
- % relaxation to 10 µM SNP [4]: 84±4%
- Δg, 1st stimulation [6, 17]: 0.7 ± 0.1 g
- Δg, 2nd stimulation [6, 17]: 0.7 ± 0.1 g
- change of amplitude of 5-HT contraction vs. vehicle, 1st stimulation [6]: +74%
- change of amplitude of 5-HT contraction vs. vehicle, 2nd stimulation [6]: +90%
- Δg, contraction to 60 mM K+ [7]: 3.1 ± 0.3 g
- change of proliferation vs. vehicle (3T3 fibroblasts; 0.5 µM, day 3): −23%
- change of proliferation vs. vehicle (3T3 fibroblasts; 2 µM, day 3): –20%
- cytotoxicity (in words) (3T3 fibroblasts; cultured 3T3 fibroblasts): not cytotoxic; also recorded: non-toxic
- inhibition (reduction) of cell proliferation (3T3 fibroblasts; day 3, 0.5 and 2 µM): 20%
- KCa1.1 effect (in words) (KCa1.1; U251 glioblastoma cells, 13b 1 µM, caffeic acid 10 µM): not blocked
- % of control at 1 µM (KCa1.1; hKCa1.1, compound 1 µM): 103 ± 3%
- hKv1.3 blocking effect (in words) (hKv1.3; concentration of 10 µM as printed): not inhibited; also recorded: did not block
- % of control at 1 µM (hKv1.3; hKv1.3, compound 1 µM): 96.4 ± 0.2%
- activity at 1 µM (hERG; compound 1 µM, read-out: % of control at 1 µM): 94 ± 3%
- hERG effect (in words) (hERG channels): not blocked; also recorded: did not block
- block of current potentiated by 1 µM SKA-31 (in words) ([11]; 1 µM 13b): almost fully blocked
- KCa current, % of control ([11]; whole-cell, compound 1 µM): 14±7%

- remaining activity at 1 µM [5, 15]: 65 ± 4%
- remaining activity at 10 µM ([5]; KCa3.1 whole-cell current, 3T3 fibroblasts, 1 µM free Ca2+ in pipette, compound 10 µM, mean ± SEM, n ≥3, read-out: % of control at 10 µM): 13 ± 5%
- remaining activity at 50 µM ([5]; KCa3.1 whole-cell current, 3T3 fibroblasts, 1 µM free Ca2+ in pipette, compound 50 µM, mean ± SEM, n ≥3, read-out: % of control at 50 µM): 2.5 ± 0.3%
- remaining activity at 10 µM ([5]; read-out: KCa3.1 current blocked, % of control): 6 ± 1%
- KCa3.1 blocking effect (in words) ([5]; whole-cell, 3T3 fibroblasts): Complete inhibition
- EC50 [5, 16]: 1600 nM
- hKv1.2 blocking effect (in words) (hKv1.2; flufenamic acid and caffeic acid 10 and 50 µM, 13c 1 µM): did not block
- remaining activity at 10 µM (hKv1.2; hKv1.2, compound 10 µM, read-out: % of control at 10 µM): 106 ± 5%
- remaining activity at 50 µM (hKv1.2; hKv1.2, compound 50 µM, read-out: % of control at 50 µM): 100 ± 2%
- remaining activity at 10 µM (hKCa2.3 [8]; COS-7, hKCa2.3, compound 10 µM, mean ± SEM, n ≥ 3, read-out: % of control at 10 µM): 104 ± 5%
- remaining activity at 50 µM (hKCa2.3 [8]; COS-7, hKCa2.3, compound 50 µM, mean ± SEM, n ≥ 3, read-out: % of control at 50 µM): 100 ± 2%
- KCa2.3 blocking effect (in words) (hKCa2.3 [8]; micromolar concentrations): no blocking effects
SMILES: O=C(O)c1ccccc1Nc1cccc(C(F)(F)F)c1 [Flufenamic Acid, 2-(3-(trifluoromethyl)phenylamino) benzoic acid, reference compound]
- EC50 [12]: ~30000 nM
- potentiation of KCa1.1 (KCa1.1; 10 µM): 2.7 fold
- % of control at 10 µM (KCa1.1; hKCa1.1, compound 10 µM): 270 ± 106%
- activity at 10 µM (hERG; compound 10 µM, read-out: % of control at 10 µM): 116 ± 15%
- hERG effect (in words) (hERG channels): slight potentiation
- EC50 [13]: ~5000 nM
- mixed KCa3.1/KCa2.3 current, % of control ([11]; 10 µM, n = 2): 25±3%
- mixed KCa3.1/KCa2.3 current, % of control ([11]; 50 µM, n = 1): 3%
